Measurements reported in patent US9801376B2, “Synergistic pesticidal compositions and related methods” (Dow AgroSciences LLC, priority 2013, dated 2017).

Columns and labels:
Format in all cases: in vivo
[1] = test system: brown stink bug, Euschistus heros; experiment: Brown stink bug diet-treatment bioassay (Example 6); conditions: alone
[2] = test system: Western flower thrips, Frankliniella occidentalis (Pergande); experiment: Western flower thrips bioassay on treated first true cotton leaves (Example 5); conditions: alone
Description: Ten second instar larvae of the Western flower thrips, Frankliniella occidentalis (Pergande), were infested onto each leaf disc. […] The “Colby's Expected Action” was calculated using Colby's equation as discussed previously.

[3] = test system: Western plant bug, Lygus hesperus; experiment: Western plant bug bean-piece dip bioassay (Examples 10 and 11)
Description: Bean pieces (about one inch-long) were used for the tests. Four bean pieces were placed in each tested active solution and left there for 10 minutes. Bean pieces were taken out of the active solution, and each piece was placed in a well in a 32-well tray and allowed to air dry. Three third-instar nymphs of Western plant bug, Lygus hesperus, were infested into each well.

[4] = test system: diamondback moth, Plutella xylostella; experiment: Diamondback moth bioassay on track-sprayed cabbage (Example 7); conditions: alone, dose rate 0.000078 weight %
Excerpt: Three second-instar diamondback moth, Plutella xylostella, were infested onto each leaf disc.

[5] = test system: Western flower thrips, Frankliniella occidentalis; experiment: Western flower thrips cotton leaf punch dip bioassay (Example 9); conditions: alone
Description: The active compounds were formulated in a 10% acetone solution with 0.025% non-ionic surfactant, TWEEN® 20. Cotton leaf punches were used for bioassays. Two cotton leaf punches were placed in each solution and left there for 10 minutes. Leaves were taken out of the solution, placed on a piece of filter paper in separated Petri dishes, and air dried. Each leaf disc was considered a repetition. Five nymph of Western flower thrips, Frankliniella occidentalis, were infested per repetition.

[6] = test system: brown stink bug, Euschistus heros; experiment: Brown stink bug bean-piece dip bioassay (Example 8); conditions: alone
Description: The active compounds were formulated in a 10% acetone solution with 0.025% non-ionic surfactant, TWEEN® 20. Bean pieces (about one inch-long) were used for the tests. Four bean pieces were placed in each tested active solution and left there for 10 minutes. Bean pieces were taken out of the active solution, and each piece was placed in a well in a 32-well tray and allowed to air dry. Three third-instar nymphs of brown stink bug, Euschistus heros, were infested into each well.
The active compounds formulated in a 10% acetone solution with 0.025% non-ionic surfactant, TWEEN® 20 were tested against brown stink bugs, Euschistus heros, according to the procedure described in example 8A.

Row | SMILES | % Control Six Days After Treatment ([1]; dose rate 0.000039 weight %) | % Control Six Days After Treatment ([1]; dose rate 0.000078 weight %) | % Control Six Days After Treatment ([1]; dose rate 0.000156 weight %) | % Control Three Days After Treatment ([2]; dose rate 0.002 weight %) | % Control Three Days After Treatment ([2]; dose rate 0.02 weight %) | % Control Three Days After Treatment ([3]; acetamiprid alone, dose rate 0.005 weight %) | % Control Three Days After Treatment ([3]; acetamiprid alone, dose rate 0.02 weight %) | % Control Three Days After Treatment [4] | % Control Three Days After Treatment ([5]; dose rate 0.00002 weight %) | % Control Three Days After Treatment ([5]; dose rate 0.000078 weight %) | % Control Three Days After Treatment ([5]; dose rate 0.0003125 weight %) | % Control Three Days After Treatment ([5]; dose rate 0.00125 weight %) | % Control Three Days After Treatment ([5]; dose rate 0.005 weight %) | % Control Three Days After Treatment ([5]; dose rate 0.02 weight %) | % Control Four Days After Treatment ([6]; dose rate 0.0025 weight %) | % Control Four Days After Treatment ([6]; dose rate 0.01 weight %) | % Control Three Days After Treatment ([3]; dinotefuran alone, dose rate 0.000078 weight %) | % Control Three Days After Treatment ([3]; dinotefuran alone, dose rate 0.00125 weight %) | % Control Three Days After Treatment ([3]; dinotefuran alone, dose rate 0.005 weight %) | % Control Three Days After Treatment ([3]; dinotefuran alone, dose rate 0.02 weight %)
1 | C/C(=N\C#N)N(C)Cc1ccc(Cl)nc1 [Acetamiprid, (1E)-N-[(6-chloro-3-pyridyl)methyl]-N′-cyano-N-methyl acetamidine] | 0% | 0% | 9% | 30% | 60% | 0% | 33% | 4.17% | – | – | – | – | – | – | – | – | – | – | – | –
2 | CN=C(NCC1CCOC1)N[N+](=O)[O-] (centres unmarked) [Dinotefuran, 2-methyl-1-nitro-3-[(tetrahydro-3-furanyl)methyl]guanidine] | – | – | – | – | – | – | – | – | 0% | 0% | 0% | 0% | 10% | 0% | 50% | 75% | 0% | 8% | 17% | 92%
